Laboratory results published in patent US20210283211A1, “COMPOSITIONS AND METHODS OF ALLEVIATING RESISTANCE TO CHEMOTHERAPY” (CITY OF HOPE, priority 2019, published 2021).
Entries after “also recorded” stand apart in the source; their conditions may differ.

How the values were obtained:
[1] = tested on: ITGB4 and PXN expression, γH2AX in H358 cells; assay: Immunoblot after sublethal dose; assay type: cell-based, human; details: 72 hours
Protocol: (§1) West blotting: Cell lysates were prepared with 1×RIPA buffer (MilliporeSigma) and denatured in 1× reducing sample buffer at 95° C. for 5 minutes. Protein samples (15 μg) were run on 4-15% TGX gels (Bio-Rad, Hercules, Calif., USA) and transferred onto nitrocellulose membranes (Bio-Rad). Blots were blocked with 5% non-fat milk in TBS-T for 1 hour at room temperature and probed with primary antibody diluted in 2.5% BSA in TBS-T overnight at 4° C. After three washes with TBS-T, blots were incubated with HRP-conjugated secondary antibodies for 2 hours at room temperature. After three more washes, bands of interest were visualized via chemiluminescence using Western Bright ECL HRP substrate (Advansta, Menlo Park, Calif., USA) and imaged with the ChemiDoc MP imager (Bio-Rad).
(§2) Then a sublethal dose was used to determine the effect of these compounds on ITGB4 and PXN expression and caspase activity (FIG. 9I). […] These eleven compounds were further screened in the cisplatin-resistant cell line H2009. […] Further, carfilzomib was tested in another cisplatin-resistant cell line H1993.

H2009 spheroids = assay: 3D spheroid assay (red fluorescence viability, caspase-3/7); assay type: cell-based, human; details: 300 nM, 72 hours
Protocol: 3D spheroid assay. 3D spheroid experiments were performed using cell lines stably transfected with NucLight Red Lentivirus (Essen Bioscience) to visualize red fluorescence as an indicator of cell viability. Cells were seeded on a 96-well ultra-low attachment plate and allowed to form spheroids overnight. Drug treatment was added as indicated along with Cytotox Green Reagent (Essen BioScience), used as a green fluorescence indicator of cell death due to loss of cell membrane integrity. To monitor cell proliferation and apoptosis over time, the plate was placed in the IncuCyte S3 Live-Cell Analysis System (Essen BioScience) and images were acquired every 2 hours. Data analysis was generated by the IncuCyte software using a red fluorescence mask to accurately measure intensity and area of red fluorescence, indicating spheroid viability and a green fluorescence mask, indicating cell death.
Confocal microscopy. […] Images were processed using ZEN software and analyzed using ImageJ (Schneider, C. A.; Rasband, W. S. & Eliceiri, K. W. (2012), “NIH Image to ImageJ: 25 years of image analysis”, Nature methods 9(7): 671-675, PMID 22930834).
To mimic conditions closer to in vivo, the effect of knocking down PXN or ITGB4 was discerned in spheroids (3D) formed from the cell lines used in 2D culture. […] The spheroid growth and survival were quantitated by monitoring dye intensity and area in real time. […]

H2009 cells = assay: cells; assay type: cell-based; details: Homo sapiens
Protocol: Cell viability assay: Cell Counting Kit-8 (CCK-8) was purchased from Dojindo Molecular Technologies (Rockville, Md., USA). Cells were seeded on a 96-well plate and allowed to adhere in complete medium for 24 hours. Test compounds were added to 100 μl of medium at the indicated concentrations for 72 hours. Ten μl of the CCK-8 reagent were added to each well and absorbance at 450 nm was measured using a Tecan Spark 10M multimode microplate reader.
as §2

[2] = tested on: ITGB4, PXN, USP1, VDAC1, CD133 in patient-derived organoids; assay: Immunoblot of treated patient-derived organoids; assay type: cell-based, human; details: 48 hours, printed 2.5 mM and 5 mM
[3] = tested on: ITGB4, PXN, FAK, p27, phospho-Rb, γH2AX, cleaved PARP in H2009 cells; assay: Immunoblot; assay type: cell-based, human; details: sublethal dose
Protocol: as §1, §2

[4] = tested on: ITGB4, PXN, FAK, MET, γH2AX, cleaved PARP in H1993 cells; assay: Immunoblot; assay type: cell-based, human; details: 50-200 nM carfilzomib
Protocol: as §1, §2

With `CC(C)C[C@H](NC(=O)[C@H](CCc1ccccc1)NC(=O)CN1CCOCC1)C(=O)N[C@@H](Cc1ccccc1)C(=O)N[C@@H](CC(C)C)C(=O)[C@@]1(C)CO1` [Carfilzomib] the “apoptosis, DNA damage (γH2AX) and ITGB4 expression” value [1] was “induced apoptosis and caused DNA damage”, the “drop in red intensity of spheroid” value (H2009 spheroids) was 2 fold and the “increase in caspase activity” value (H2009 spheroids) was 2 fold. The cytotoxicity at 0.08 µM (H2009 cells; NCI-H2009, 72 h, read-out: reduction in the cell viability) was 80%, the IC50 (H2009 cells; NCI-H2009, H2009 cells, increasing dose, 72 hours) was 418 nM and the “protein expression by immunoblot” value [2] was “decrease in the expression of ITGB4, USP1, PXN and VDAC1; also recorded: decreased expression of ITGB4, PXN, USP1, VDAC1 and CD133”. The “protein expression by immunoblot” value [3] was “reduced ITGB4 and PXN expression; also recorded: reduced expression of ITGB4 and phospho-Rb (S807/811) and increased expression of p27, γH2AX, and cleaved PARP” and the “protein expression by immunoblot” value [4] was “reduction in ITGB4 expression and increase in cleaved PARP and γH2AX”.
